The structures appear in SMILES notation. pEC50, pIC50: −log10 of the molar value.

A short description of data set [1]: Selectivity index, ratio of CC50 for cytotoxicity against human MT4 cells assessed as reduction in cell viability by MTT assay to EC50 for antiviral activity against wild type HIV-1 IIIB infected in human MT4 cells assessed as protection against virus-induced cytopathic effect. Type of data set: toxicity, cell-based. To be noted: read-out: Ratio CC50/EC50.
Data set [2] is described as follows: Cytotoxicity against human MT4 cells assessed as reduction in cell viability by MTT assay. Type of data set: toxicity, cell-based. (Tetrazolium dyes change colour on reduction, which living cells bring about.)
Data set [3] concerns Human immunodeficiency virus 1. Description: Antiviral activity against wild type HIV-1 IIIB infected in human MT4 cells assessed as protection against virus-induced cytopathic effect incubated for 5 days by MTT assay. Type of data set: functional, organism-based. To be noted: Human immunodeficiency virus 1, IIIB, MT4, 120 h. In general terms: Protection from cytopathic effect is a common read-out in antiviral testing.

Data set [4] concerns Human immunodeficiency virus 1. Kind of data set: Antiviral activity against NNRTI-resistant HIV-1 harboring E138K mutant infected in human MT4 cells assessed as protection against virus-induced cytopathic effect by MTT assay. Type of data set: functional, organism-based. To be noted: Human immunodeficiency virus 1, MT4.
Data set [5] deals with Human immunodeficiency virus 1. Kind of data set: Antiviral activity against NNRTI-resistant HIV-1 harboring Y188L mutant infected in human MT4 cells assessed as protection against virus-induced cytopathic effect by MTT assay. Type of data set: functional, organism-based. To be noted: Human immunodeficiency virus 1, MT4.
Data set [6] relates to Human immunodeficiency virus 1. Kind of data set: Antiviral activity against NNRTI-resistant HIV-1 harboring K103N mutant infected in human MT4 cells assessed as protection against virus-induced cytopathic effect by MTT assay. Type of data set: functional, organism-based. To be noted: Human immunodeficiency virus 1, MT4.
Data set [7] concerns Human immunodeficiency virus 1. Kind of data set: Antiviral activity against NNRTI-resistant HIV-1 harboring Y181C mutant infected in human MT4 cells assessed as protection against virus-induced cytopathic effect by MTT assay. Type of data set: functional, organism-based. The note with it: Human immunodeficiency virus 1, MT4.
Data set [8] has as its system Human immunodeficiency virus 1. Description: Antiviral activity against NNRTI-resistant HIV-1 harboring L100I mutant infected in human MT4 cells assessed as protection against virus-induced cytopathic effect by MTT assay. Type of data set: functional, organism-based. To be noted: Human immunodeficiency virus 1, MT4.
The test system of data set [9] is Human immunodeficiency virus 1. Description: Antiviral activity against NNRTI-resistant HIV-1 harboring RES056 mutant infected in human MT4 cells assessed as protection against virus-induced cytopathic effect by MTT assay. Type of data set: functional, organism-based. To be noted: Human immunodeficiency virus 1, MT4.
Data set [10] has as its target Human immunodeficiency virus type 1 reverse transcriptase (Human immunodeficiency virus 1, UniProt Q72547). Kind of data set: Inhibition of wild type HIV-1 Reverse transcriptase assessed as reduction of biotin-dUTP incorporation into […] using ABTS as substrate preincubated with compound for 1 hr followed by substrate addition in presence of biotin-labeled dNTPs by ELISA analysis.

With `Cn1c(Cn2ccc(C(F)(F)F)c(Oc3cc(Cl)cc(-c4ccco4)c3)c2=O)n[nH]c1=O`, the selectivity ratio in data set [1] was 311. Besides, the CC50 in data set [2] amounted to 59100 nM. Moreover, the pEC50 in [3] was 6.72.
Consider `Cn1c(Cn2ccc(C(F)(F)F)c(Oc3cc(Cl)cc(-c4ccc(Cl)cc4)c3)c2=O)n[nH]c1=O`, for which the negative logarithm of the EC50 (pEC50) was 7.55 in data set [4]; 5.83 in data set [5]; 7.72 in data set [6]; 7.52 in data set [7]; 7.85 in data set [8]; 6.40 in [9]. The negative-log EC50 (pEC50) in data set [3] is 7.96. For the same molecule, the negative-log IC50 (pIC50) in data set [10] is 7.70. In addition, the CC50 in data set [2] is 124000 nM.
Consider `Cn1c(Cn2ccc(C(F)(F)F)c(Oc3cc(Cl)cc(C(=O)O)c3)c2=O)n[nH]c1=O`, for which the selectivity ratio in [1] came to 6. For the same molecule, the CC50 in [2] stood at 34200 nM. Besides, the pEC50 in data set [3] is 5.27.
In the case of `Cn1c(Cn2ccc(C(F)(F)F)c(Oc3cc(Cl)cc(-c4ccncc4)c3)c2=O)n[nH]c1=O`, in [1], the selectivity ratio came out at 4700. Also, the pEC50 in data set [4] was 7.41; in [5], 5.88; in data set [6] it was 7.66; in data set [7], 7.40; in data set [8] it was 7.92; in data set [9] it was 6.02. The pEC50 in [3] is 7.82. Also, the negative logarithm of the IC50 (pIC50) in data set [10] was 7.10. In data set [2], the CC50 is 70500 nM.
Turning to `Cn1c(Cn2ccc(C(F)(F)F)c(Oc3cc(Cl)cc(C#N)c3)c2=O)n[nH]c1=O` [DORAVIRINE], the pEC50 in data set [4] was 7.43; in data set [5] it was 5.68; in [6] it was 7.85; in [7], 7.57; in data set [8], 7.89; in [9] it was 6.89. Moreover, the pEC50 in [3] is 8.10. Moreover, the CC50 in data set [2] was over 294000 nM.
As for `Cn1c(Cn2ccc(C(F)(F)F)c(Oc3cc(Cl)cc(-c4ccc(O)cc4)c3)c2=O)n[nH]c1=O`, the selectivity ratio in data set [1] worked out at 45. Also, the 50% cytotoxic concentration (CC50) in data set [2] was determined as 16200 nM. In addition, in [3], the pEC50 was 6.44.
For the molecule `Cn1c(Cn2ccc(C(F)(F)F)c(Oc3cc(Cl)cc(-c4cccs4)c3)c2=O)n[nH]c1=O`, the selectivity ratio in data set [1] came out at 48. Also, the CC50 in data set [2] came out at 45800 nM. Also, the pEC50 in [3] was 6.02.
Regarding `Cc1ccc(-c2cc(Cl)cc(Oc3c(C(F)(F)F)ccn(Cc4n[nH]c(=O)n4C)c3=O)c2)cc1`, the selectivity ratio in data set [1] stood at 11800. Also, the negative logarithm of the EC50 (pEC50) in data set [4] was 7.43; in [5], 5.87; in data set [6] it was 7.77; in data set [7] it was 7.54; in [8] it was 7.89; in data set [9], 6.46. The negative logarithm of the EC50 (pEC50) in data set [3] was 8.10. The negative logarithm of the IC50 (pIC50) in data set [10] is 7.52. In addition, the 50% cytotoxic concentration (CC50) in [2] was found to be 94200 nM.
For `Cn1c(Cn2ccc(C(F)(F)F)c(Oc3cc(Cl)cc(-c4cnc(N)nc4)c3)c2=O)n[nH]c1=O`, the selectivity ratio in data set [1] worked out at 19. For the same molecule, the cytotoxic concentration (CC50) in [2] turned out to be 3240 nM. Further, in [3], the pEC50 is 6.77.
As to `Cn1c(Cn2ccc(C(F)(F)F)c(Oc3cc(Cl)cc(Br)c3)c2=O)n[nH]c1=O`, the selectivity ratio in data set [1] was 14200. Further, the negative logarithm of the EC50 (pEC50) in [4] was 7.55; in data set [5] it was 5.87; in data set [6], 7.66; in data set [7], 7.64; in data set [8], 7.92; in data set [9] it was 6.65. Moreover, in data set [3], the negative logarithm of the EC50 (pEC50) was 8.00. In [10], the pIC50 is 7.52. The CC50 in data set [2] was found to be 142000 nM.
For the molecule `Cn1c(Cn2ccc(C(F)(F)F)c(Oc3cc(Cl)cc(-c4ccc(C#N)cc4)c3)c2=O)n[nH]c1=O`, the selectivity ratio in data set [1] worked out at 109. For the same molecule, in [2], the CC50 was determined as 5130 nM. In addition, in data set [3], the negative-log EC50 (pEC50) is 7.33.
On to `Cn1c(Cn2ccc(C(F)(F)F)c(Oc3cc(Cl)cc(-c4ccc(N)nc4)c3)c2=O)n[nH]c1=O`, for which the selectivity ratio in data set [1] stood at 154. Also, the CC50 in [2] is 32100 nM. Moreover, the pEC50 in [3] was 6.68.
On the same counts, the results for `Cn1c(Cn2ccc(C(F)(F)F)c(Oc3cc(Cl)cc(-c4cccnc4)c3)c2=O)n[nH]c1=O` are 210, 12800 nM and 7.21.
Consider `Cn1c(Cn2ccc(C(F)(F)F)c(Oc3cc(Cl)cc(-c4ccc([N+](=O)[O-])cc4)c3)c2=O)n[nH]c1=O`, for which, in data set [1], the selectivity ratio worked out at 1460. In addition, in data set [2], the 50% cytotoxic concentration (CC50) was 45400 nM. The pEC50 in data set [3] was 7.51.
Consider `Cn1c(Cn2ccc(C(F)(F)F)c(Oc3cc(Cl)cc(-c4ccc(C(N)=O)cc4)c3)c2=O)n[nH]c1=O`, for which the selectivity ratio in data set [1] came to 284. In addition, in [2], the 50% cytotoxic concentration (CC50) was 74200 nM. Moreover, in data set [3], the negative logarithm of the EC50 (pEC50) is 6.58.
As to `Cn1c(Cn2ccc(C(F)(F)F)c(Oc3cc(Cl)cc(-c4ccsc4)c3)c2=O)n[nH]c1=O`, the selectivity ratio in [1] amounted to 2130. The 50% cytotoxic concentration (CC50) in data set [2] was determined as 87200 nM. Also, in data set [3], the pEC50 is 7.39.
Consider `COC(=O)c1ccc(-c2cc(Cl)cc(Oc3c(C(F)(F)F)ccn(Cc4n[nH]c(=O)n4C)c3=O)c2)cc1`, for which the selectivity ratio in data set [1] turned out to be 4360. Moreover, the negative logarithm of the EC50 (pEC50) was 7.80 in data set [4]; 6.12 in data set [5]; 7.72 in [6]; 7.77 in data set [7]; 7.96 in data set [8]; 6.75 in data set [9]. In addition, the pEC50 in [3] is 7.96. Further, in data set [10], the pIC50 was 7.52. Also, the CC50 in [2] stood at 47900 nM.
For `Cn1c(Cn2ccc(C(F)(F)F)c(Oc3cc(Cl)cc(-c4ccc(F)cc4)c3)c2=O)n[nH]c1=O`, the selectivity ratio in [1] came out at 161. In addition, the CC50 in data set [2] was 31300 nM. For the same molecule, the negative-log EC50 (pEC50) in data set [3] is 6.71.
For the molecule `Cn1c(Cn2ccc(C(F)(F)F)c(Oc3cc(Cl)cc(-c4ccccc4)c3)c2=O)n[nH]c1=O`, the selectivity ratio in data set [1] turned out to be 505. For the same molecule, the CC50 in data set [2] came to 187000 nM. In addition, the pEC50 in data set [3] was 6.43.
Take `Cn1c(Cn2ccc(C(F)(F)F)c(Oc3cc(Cl)cc(-c4cncnc4)c3)c2=O)n[nH]c1=O`: the selectivity ratio in [1] worked out at 6470. Also, the negative logarithm of the EC50 (pEC50) in data set [4] was 7.60; in data set [5] it was 5.83; in data set [6], 7.38; in [7] it was 7.37; in [8] it was 7.72; in [9], 7.04. Further, in data set [3], the pEC50 was 8.00. In data set [10], the pIC50 is 7.40. The CC50 in data set [2] was 64700 nM.
Regarding `Cn1c(Cn2ccc(C(F)(F)F)c(Oc3cc(Cl)cc(C(N)=O)c3)c2=O)n[nH]c1=O`, in [1], the selectivity ratio came to 14. Besides, the half-maximal cytotoxic concentration (CC50) in data set [2] was 28500 nM. Further, in data set [3], the negative logarithm of the EC50 (pEC50) was 5.69.
As for `Cn1c(Cn2ccc(C(F)(F)F)c(Oc3cc(Cl)cc(-c4ccc(N)cc4)c3)c2=O)n[nH]c1=O`, in data set [1], the selectivity ratio amounted to 213. The CC50 in [2] is 33700 nM. In addition, the negative-log EC50 (pEC50) in data set [3] was 6.80.
For the molecule `Cn1c(Cn2ccc(C(F)(F)F)c(Oc3cc(Cl)cc(-c4cc5ccccc5s4)c3)c2=O)n[nH]c1=O`, the selectivity ratio in data set [1] is 8420. For the same molecule, the pEC50 is 7.77 in [4]; 6.19 in data set [5]; 7.74 in data set [6]; 7.42 in data set [7]; 7.92 in [8]; 6.73 in data set [9]. For the same molecule, the pEC50 in data set [3] is 7.92. Further, in data set [10], the pIC50 was 7.40. For the same molecule, the CC50 in data set [2] was found to be 101000 nM.
Take `Cn1c(Cn2ccc(C(F)(F)F)c(Oc3cc(Cl)cc(-c4cnc5ccccc5c4)c3)c2=O)n[nH]c1=O`: the selectivity ratio in data set [1] stood at 133. In addition, in [2], the 50% cytotoxic concentration (CC50) came out at 58100 nM. Besides, the negative logarithm of the EC50 (pEC50) in data set [3] is 6.36.
Turning to `Cn1c(Cn2ccc(C(F)(F)F)c(Oc3cc(Cl)cc(-c4ccoc4)c3)c2=O)n[nH]c1=O`, the selectivity ratio in data set [1] came out at 205. The half-maximal cytotoxic concentration (CC50) in data set [2] came to 57400 nM. For the same molecule, the pEC50 in data set [3] is 6.55.

The term CC50 denotes the concentration at which the toxic effect on the cells reaches its halfway point. By pEC50 is commonly meant −log10 of the EC50, conventionally taken in molar units. For orientation: pIC50 means the negative decadic logarithm of the IC50, by convention in mol/L.

Source of the values: ChEMBL document CHEMBL5543149, “Discovery of Novel Aryl Triazolone Dihydropyridines (ATDPs) Targeting Highly Conserved Residue W229 as Promising HIV-1 NNRTIs” (J Med Chem, 2024).
